A word on the IC50: it is the concentration at which inhibition is half-maximal.

Where two headings read alike, the source gives them in different places.

One compound from US6878388B1, “Vanadium compounds for treating proliferative cell disorders” (Parker Hughes Institute, priority 2000, dated 2005) can be followed below.

In assay [1] the test system is intracranial U87 glioblastoma. The experiment in a line: Nude mouse model of intracranial glioblastoma. The assay is classed as in vivo, NCr nude mice. An excerpt:
FIG. 2 illustrates the in vivo antitumor activity of [VO(SO4)(Me2-Phen)2] against intracranial U87 glioblastoma in nude mice. A representative survival curve of [VO(SO4)(Me2-Phen)2]-treated (n=8) and control (n=9) mice is shown.
The animal protocols used in this study were approved by the Parker Hughes Institute Institutional Animal Care and Use Committee (IACUC). Female CB.17 severe combined immuno-deficient (SCID) and NCr nude mice were obtained from Taconic (Germantown, N.Y.) and housed in a specific pathogen-free room located in a secure indoor facility with controlled temperature, humidity, and noise levels. Mice were housed in microisolater cages and fed with autoclaved rodent chow. Water was also autoclaved and supplemented with trimethoprim/sulfomethoxazol 3 days/week.
Nude mice were anesthetized with Avertin (2,2,2-tribromoethanol in tert-amyl alcohol; Aldrich Chemical Co., Milwaukee, Wis.) at a dose of 0.5 mg/g under aseptic conditions in a laminar flow hood. A small hole was drilled through the skull 2 mm to the right of the midline and 2 mm posterior to the bregma. U87 glioblastoma cells (4×10^5 cells in 10 μl of PBS) were intracranially implanted into the right side of the cerebral hemisphere of the mice using a Hamilton syringe fitted to a stereotaxic apparatus with a mouse adaptor (David Kopf Instruments, Tujunga, Calif.) as described earlier (34). Twenty-four hours after inoculation, mice were treated intraperitoneally with [VO(SO4)(Me2-Phen)2] (10 mg/kg/day, n=10) or vehicle (5% DMSO in PBS, n=11) for ten consecutive days. […] The grains were then fixed in formalin, processed for histopathology and the tumor volumes from histological sections were measured as described earlier (Haung et al., J. Biol Chem, 272; 2927-2935, 1997). the remaining mice were monitored twice a day for survival.
Following intracranial implantation of 4×10^5 U87 glioblastoma cells (in 10 μl of PBS) into the right cerebral hemispheres of NCr […] mice [VO(SO4)(Me2-Phen)2] […] The mice wee monitored twice a day for health status. […]

Another assay concerns U87 glioblastoma cells. The experiment in a line: In vitro adhesion assay to ECM proteins, U87. The assay is classed as cell-based, human. The settings on record: 16 h pretreatment, mean ± SE of 3 experiments. As to the method:
In vitro adhesion assays were used to evaluate the effects of [VO(SO4)(Me2-Phen)2] on the adhesive properties of U87 and MDA-MD-231 cells as described previously (Narla et al., Clin Cancer Res, 4: 2463-2471, 1998). The plates for the adhesion assays were pre-coated with the extracellular matrix (ECM) proteins laminin, fibronectin, vitronectin and type IV collagen (each at a final concentration of 1 μg/ml in PBS) overnight at 4° C. and dried. Exponentially-growing cells (as described in the previous Example) were incubated with [VO(SO4)(Me2-Phen)2] at concentrations ranging from 0.5 μM to 25 μM for 16 hours in a humidified 5% CO2 atmosphere. The cells were then detached from the flasks with 0.05% trypsin (Life Technologies), resuspended in medium, incubated at 37° C. for 2 hours to allow them to recover from the trypsinization stress and examined for their ability to adhere to the plates precoated with ECM proteins. Cells were centrifuged, washed twice with serum-free medium, counted and resuspended in serum-free medium at a final concentration of 2.5×10^5 cells/ml. The cell suspension was added to each well in aliquots of 100 μl and the cells were allowed to adhere for one hour at 37° C. in a humidified 5% CO2atmosphere. The non-adherent cells were removed by gently washing the cells with PBS. The adherent fraction was quantitated using MTT assays as previously described (Narla, Supra).
U87 glioblastoma and MDA-MD-231 breast cancer cells were preincubated with various concentrations of [VO(SO4)(Me2-Phen)2] and processed for adhesion assays. [VO(SO4)(Me2-Phen)2] inhibited adhesion of the U87 and MDA-MB-231 cells to extracellular matrix (ECM) proteins, Pretreatment of cells with [VO(SO4)(Me2-Phen)2] inhibited the adhesion of U87 glioblastoma and MDA-MB-231 breast cancer cells to laminin-, fibronectin-, vitronectin- and collagen-coated plates. The inhibition of glioblastoma cell adhesion was concentration-dependent with mean (±SE) IC50 values from 3 independent experiments shown in the table below.

For the compound `Cc1ccnc2c1ccc1c(C)ccnc12.Cc1ccnc2c1ccc1c(C)ccnc12.O=S(=O)([O-])[O-].[O]=[V+2]` [[VO(SO4)(Me2-Phen)2], bis(4,7-dimethyl-1,10-phenanthroline) sulfatooxovanadium (IV)], the “mice remaining alive for >24 days” value in assay [1] (10 mg/kg/day i.p. for ten consecutive days) is “over 60%”. This compound also showed a median survival time in assay [1] (10 mg/kg/day i.p. for ten consecutive days, control 19.6±0.6 days, P=0.0002) of 24.4 ± 0.8 days. Further, the “average tumor volume, fold less than vehicle-treated control” value in assay [1] (17 days after tumor cell inoculation, histological sections, two mice per group) is recorded as “approximately 2.9 fold”. The IC50 with U87 glioblastoma cells (U87, fibronectin-coated plates, read-out: IC50 inhibition of adhesion to fibronectin) was 1.3 µM; in the assay with U87 glioblastoma cells (U87, laminin-coated plates, read-out: IC50 inhibition of adhesion to laminin), 1.4 ± 0.1 µM; in the assay on U87 glioblastoma cells (U87, type IV collagen-coated plates, read-out: IC50 inhibition of adhesion to collagen) it was 1.2 µM; in the assay with U87 glioblastoma cells (U87, vitronectin-coated plates, read-out: IC50 inhibition of adhesion to vitronectin), 1.2 ± 0.1 µM.
